# Reference: US20250295619A1, “Use of Salvianolic Acid E in the Preparation of Drugs Targeting Senescent Cells, Inhibiting Tumors or Extending Lifespan” (Shanghai Institute of Nutrition and Health, Chinese Academy …, priority 2024, published 2025)
# “Also recorded” adds a separate entry of the source.
# Legend:
# PSC27 [1] = assay: CCK8 survival of proliferating and senescent PSC27 cells; assay type: cell-based, human
# Experimental: To cause cell damage, 50 μg/mL bleomycin (bleomycin, BLEO) was added to the culture medium when PSC27 cells grew to 80% (abbreviated as PSC27-CTRL). After 12 hours of drug treatment, the cells were simply washed 3 times with PBS, left in the culture medium for 7-10 days, and then the subsequent experiments were performed.
# Pharmacodynamic analysis was conducted on an organic chemical drug library (TOPSCIENCE) with a total of 1470 small molecule compounds, mostly derived from medicinal plants and had anti-senescence potential. Each product was diluted to a 96-well plate according to a certain concentration gradient, and the density was 5000 cells per well. The medium uses DMEM, and the working concentration of natural product (or compound) is generally controlled at […] to 1 mM. After 3-7 days of drug treatment, cell proliferation was measured with CCK-8 Cell Counting Kit (based on WST-8 principle, Vazyme), and cell apoptosis activity was determined with Caspase 3/7 Activity Kit (Promega).
# PSC27 [2] = assay: Population doubling (PD) test of PSC27; assay type: cell-based, human
# Experimental: The cells were damaged by BLEO at passage 10 (p10), and then SAE was added to the medium at day 8. The effect SAE on cell proliferation potential is determined by comparative analysis of the population doubling (PD) of CTRL group, BLEO group, SAE group and BLEO/SAE group. ^, P>0.05; ***P<0.001.
# PSC27 [3] = assay: Caspase 3/7 apoptosis detection in senescent PSC27 cells (IncuCyte); assay type: cell-based, human; conditions: 200 μM SAE
# Experimental: PSC27 cells gradually entered the senescent stage after being treated with BLEO for 12 hours under culture conditions. 200 μM SAE was added to the medium of senescent cells starting from day 7, NucLight Rapid Red reagent was used to label the cells and caspase 3/7 reagent (IncuCyte) was used for apoptosis detection. Caspase 3/7 activity was detected every 4 hours (n=3).
# Statistical differences are obtained by two-way ANOVA (Turkey'test).
# PSC27 cells were plated in a 96-well dish, and the cells were induced to senescence under 50 μg/ml of BLEO treatment. SAE and ABT263 were added at concentrations of 200 μM and 1.25 μM, respectively. Cell culture medium was supplemented with Incucyte Nuclight fast Red Reagent (Essen Bioscience) and Incucyte C-3/7 Apoptosis Reagent (Essen Bioscience). Representative field of view was selected to take pictures.
# PSC27 [4] = assay: Flow cytometry apoptosis of PSC27; assay type: cell-based, human; conditions: SAE
# From the text: Q2, distribution area of early apoptotic cells; Q3, distribution area of late apoptotic cells.
# [5] = system: senescent cells in tumor tissue; assay: SA-β-Gal staining of tumor tissues of PC3/PSC27 tumor-bearing mice; assay type: in vivo, mouse; conditions: SAE with MIT
# Experimental: Representative pictures after SA-β-Gal staining. Scale bar, 100 μm.
# In a preclinical treatment trial, subcutaneously transplanted mice were fed with a standard experimental diet, after 2 weeks chemotherapy drugs mitoxantrone (MIT, dose: 0.2 mg/kg) and/or SAE (500 μl, dose: 10 mg/kg) via intraperitoneal administration. The time points were: the former was administrated on the first day of the 3rd, 5th and 7th weeks, and the latter was administrated on the first day of the 5th and 7th weeks. A total of 3 cycles of MIT administration were carried out throughout the course of treatment, and each cycle lasted for 2 weeks. After the course of treatment, mouse tumors were harvested for volume measurement and histological analysis. Each mouse cumulatively received 0.6 mg/kg body weight of MIT and 30 mg/kg body weight of SAE. In order to cause systemic expression of SASP factors induced by chemotherapy, MIT was administered to mice through intravenous infusion according to the above steps and sequence, but the dose was reduced to 0.1 mg/kg body weight/each time (the cumulative dose of MIT received in the whole course of treatment was 0.3 mg/kg body weight) to reduce drug-related toxicity. The chemotherapy experiment ended at the end of the 8th week, and the mice were dissected immediately after sacrifice, and the xenograft tumors were collected and used for pathological system analysis.
# PC3/PSC27 tumors = assay: DNA damage and apoptosis in tumors of treated mice; assay type: in vivo, mouse
# From the text: To investigate mechanisms directly supporting this senescence-associated pattern with expression and reversal of SASP in MIT-administered mice, the inventors dissected tumors in animals treated with both drugs 7 days after the first SAE administration, and the time point of 7 days after administration was selected mainly because drug-resistant clones had not yet formed in cancer cells in the lesion at this time. […] As supporting evidence, when SAE was applied during treatment, caspase 3 cleavage activity was increased, which was a typical hallmark of apoptosis (FIG. 29).
# aged C57BL/6 mice = assay: Lifespan study in aged C57BL/6 mice; assay type: in vivo, mouse; conditions: administered from 24-27 months of age, every two weeks
# Experimental: Starting at 24 to 27 months of age, C57BL/6 mice received intraperitoneal administration of vehicle or SAE every two weeks (n=80 for vehicle group; n=91 for SAE group). The median survival of animals in each group was calculated and indicated. ****, P<0.0001.
# Starting at 24 to 27 months of age, C57BL/6 mice received intraperitoneal administration of vehicle or SAE every two weeks (n=80 for vehicle group; n=91 for SAE group). The median lifetime survival of animals in each group was calculated and indicated. ****, P<0.0001.
# For the cell transplantation study, the inventors obtained […] male C57BL/6 mice by serial rearing in the SPF animal platform, with 4 to 5 animals per cage. The inventors first sorted the mice by body weight from low to high, and then selected mice with similar body weights. Next, the mice were assigned to senescence (SEN) or control (CTRL) transplant treatment at each interval using a random number generator, while the middle mice were assigned to the other treatment, so that the body weights of the senescence and control transplant mice were matched. One month after cell transplantation, when the mice were 18 months old, physical function tests were performed. After that, no further testing was done on the mice other than checking their cages. The earliest deaths occurred approximately 2 months after the last physical function test. […]
compound,measurement,setting,value
"O=C(/C=C/c1ccc(O)c(O)c1/C(=C\c1ccc(O)c(O)c1)C(=O)O[C@H](Cc1ccc(O)c(O)c1)C(=O)O)O[C@H](Cc1ccc(O)c(O)c1)C(=O)O [SAE, salvianolic acid E]",percentage of surviving senescent cells,PSC27 [1]; SAE 2000 μM,approximately 10%
same,survival of proliferating cells,PSC27 [1]; SAE 3000 μM,not significantly reduced
same,concentration from which significant death of senescent cells is induced,PSC27 [1]; vs control proliferating cells,200 µM
same,PD in proliferating cells,PSC27 [2]; SAE alone,does not affect PD
same,population doubling (PD) ability of stromal cells after genotoxic treatment combined with SAE,PSC27 [2]; combination with genotoxic drug (BLEO) vs genotoxic drug alone,significant increase; also recorded: significantly increased
same,caspase-3/7 activity: apoptosis of senescent cells,PSC27 [3],caused apoptosis of senescent cells
same,time after addition of SAE from which senescent and control group differ statistically,PSC27 [3]; caspase 3/7 activity,≥ 16 h
same,change of proliferating cells,PSC27 [4],not obvious
same,proportion of apoptosis of senescent PSC27 cells,PSC27 [4],significantly increased
same,viability of senescent PSC27 cells,PSC27 [4],significantly reduced
same,senescent cells in the lesions of animals treated with chemotherapeutic drugs after SAE administration,[5],essentially depleted most senescent cells
same,indices of DNA damage or apoptosis,PC3/PSC27 tumors; MIT-treated animals administered with SAE,significantly enhanced
same,caspase 3 cleavage activity,PC3/PSC27 tumors; SAE applied during treatment,significantly increased
same,degree of DNA damage and apoptosis,"PC3/PSC27 tumors; single agent compared with placebo, 7 days after first SAE administration",could not induce DNA damage or cause apoptosis
same,risk of death HR (SAE group/vehicle group),aged C57BL/6 mice,0.3249
